# Measurements from paper PMC7203973 (ACS Omega, 2020).
# Experiments:
# [1] = marketed drugs; cited from earlier work
# [2] = cited from earlier work
# Permeability by PAMPA = format: in vitro ADME
# [3] = cited from earlier work; remark: listed apart in the source
# [4] = cited from earlier work; remark: listed apart in the source
# [5] = cited from earlier work; remark: listed apart in the source
smiles,measurement,setting,value
CCN(CC)CCOC(=O)c1ccc(N)cc1 [procaine],stability in rat plasma versus human plasma,[1],vice verse
CCOC(=O)[C@H](CCc1ccccc1)N[C@@H](C)C(=O)N1CCC[C@H]1C(=O)O [enalapril],stability in rat plasma versus human plasma,[1],very less stable in rat plasma but more stable in human plasma
CO[C@H]1C[C@@H]2CC[C@@H](C)[C@@](O)(O2)C(=O)C(=O)N2CCCC[C@H]2C(=O)O[C@H]([C@H](C)C[C@@H]2CC[C@@H](O)[C@H](OC)C2)CC(=O)[C@H](C)/C=C(\C)[C@@H](O)[C@@H](OC)C(=O)[C@H](C)C[C@H](C)/C=C/C=C/C=C/1C [rapamycin],"blood-to-plasma ratio (KRBC/Plasma), reported in the literature",[2],3.5 ± 0.5
C[C@]12CC[C@H]3[C@@H](CCC4=CC(=O)CC[C@@]43C)[C@@H]1CC[C@@H]2O [testosterone],"Papp at 5 h, 25 μM",Permeability by PAMPA,102 ×10⁻⁶ cm/s
same,"partition coefficient (log P), reported value",[3],around 3.28
same,"permeability (log Pe), reported results",[4],−3.5 to −4.9
CCN(CC)CCCC(C)Nc1ccnc2cc(Cl)ccc12 (stereo not drawn) [chloroquine],"blood-to-plasma ratio (KRBC/Plasma), reported in the literature",[2],8.5 ± 0.1
CO[C@H]1/C=C/O[C@@]2(C)Oc3c(C)c(O)c4c(O)c(c(/C=N/N5CCN(C)CC5)c(O)c4c3C2=O)NC(=O)/C(C)=C\C=C\[C@H](C)[C@H](O)[C@@H](C)[C@@H](O)[C@@H](C)[C@H](OC(C)=O)[C@@H]1C [rifampicin],"plasma protein binding, reported results",[5],82–92%
NS(=O)(=O)c1cc(C2(O)NC(=O)c3ccccc32)ccc1Cl (stereo not drawn) [chlorthalidone],"blood-to-plasma ratio (KRBC/Plasma), reported in the literature",[2],20.0 ± 0.3
